In paper PMC6930524, “A Prospective Repurposing of Dantrolene as a Multitarget Agent for Alzheimer’s Disease” (Molecules, 2019):

How the values were obtained:
[1] = target: T1, beta amyloid peptide 1–40 (Aβ40) (Homo sapiens, UniProt P05067); assay: Inhibition of Aβ40 self-aggregation (ThT fluorescence, 2% HFIP); assay type: biochemical; details: inhibitor 100 μM, Aβ40 30 μM
T1 construct: beta amyloid peptide 1–40 (Aβ40); purchased Sigma-Aldrich Europe (Milan, Italy)
From the text: As an additional proof of the potential of DAN in interfering with AD-related processes, we investigated the effects on the in vitro self-aggregation of beta amyloid peptide 1–40 (Aβ40) and Tau hexapeptide (306)VQIVYK(311) (PHF6). Aβ40 is used as an in vitro probe of the fibrillization process leading to amyloid fibrils and ultimately to senile plaques in AD [32], while PHF6 represents the highly proaggregating sequence of the repeated domain R3 of Tau protein, responsible of the formation of neurofibrillary tangles and other tauopathies in NDs. With this aim, we developed a fast screening method of Aβ40 aggregation using thioflavin T (ThT) as fluorescent probe and 2% 1,1,1,3,3,3-hexafluoro-2-propanol (HFIP) as aggregation enhancer. Regarding PHF6, we started from an already published methodology for the setup of an in-house method, with 2,2,2-trifluoroethanol (TFE) as the cosolvent. […] Quercetin was used as a standard reference for the inhibition of amyloid aggregation. The concentrations of inhibitors were 100 μM and 25 μM in Aβ40 and in PHF6 assay, respectively. […]
An already established assay was used in a 96-well plate procedure, using HFIP as aggregation enhancer. […] After addition of ThT, the fluorescence was read at 440/485 excitation/emission wavelength. […] Inhibition values were calculated by means of Prism.

[2] = design: method as in PMID 11735355; details: cited from earlier work

T1 sequence (P05067 672-711 limits assumed): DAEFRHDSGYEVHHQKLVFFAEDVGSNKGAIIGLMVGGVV

For O=C1CN(/N=C/c2ccc(-c3ccc([N+](=O)[O-])cc3)o2)C(O)=N1 [Dantrolene], the inhibition at 100 µM [1] is listed as 56% and the “antioxidant potency, inhibition of Fe2+/thiocyanate peroxidation of linoleic acid” value [2] is listed as “high antioxidant potency”.
